How the values were obtained:
Format in all cases: physicochemical
Viscosity = test: Viscosity
[1] = Pigment dispersibility (wet point WP and flow point FP); settings: titanium oxide, zinc oxide, iron oxide
Description: 1. Weigh 1.5 g of a pigment in mortar. 2. Gradually add an oil dropwise and knead with a pestle. 3. Check the weight of the oil at each point of WP and FP. 4. Calculate WP and FP per 100 g of the pigment. WP: Wet point (the lower the wet point, the better the wettability of the pigment.) FP: Flow point (the lower the flow point, the better the dispersibility of the pigment.)

[2] = Solubility and gelling ability with each liquid; critical gelation concentration by sample tube inversion method; parameters: key: S: Soluble; I: Insoluble/separation; G: Gel; T: Thickening; EG: Emulsion gel
Protocol: The amide alcohol or ester of amide alcohol was heated and mixed with each liquid, and the critical gelation concentration was measured by sample tube inversion method.
Sample tube used: used tube: Maruemu screw tube No. 7 (trunk diameter 35 mm total length 78 mm)

[3] = as above; settings: physical form of the ester

Row | viscosity (Viscosity) | pigment dispersibility [1] | solubility and gelling ability ([2]; Ethanol) | solubility and gelling ability ([2]; Glycerin) | solubility and gelling ability ([2]; Octyldodecanol) | solubility and gelling ability ([2]; Octyldodecyl myristate) | solubility and gelling ability ([2]; Squalane) | solubility and gelling ability ([2]; Triethylhexanoin) | solubility and gelling ability ([2]; Water) | Property [3] | Compound
1 | approximately 270 mPa·s | excellent pigment dispersibility |  |  |  |  |  |  |  |  | N-2 ethylhexylbutyramide 4-isostearic acid ester [EHBA-IS]
2 |  |  | G | I | G | G | G | G | I | Solid | CCCCCCCCCCCCNC(=O)CCCOC(=O)CCCCCCCCCCC [LBA-L, N-laurylbutyramide-4-lauric acid ester]
3 |  |  | S | I | S | S | I | I | I | Solid | CCCCCCCCCCCC(=O)OCCCC(=O)NCC(CC)CCCC (centres unmarked) [EHBA-L, N-2 ethylhexylbutyramide-4-lauric acid ester]
4 |  |  | S | I | G | G | G | G | I | Solid | CCCCCCCCCCCC(=O)OCCCC(=O)NCCCCCCCC [OBA-L, N-octylbutyramide-4-lauric acid ester]
5 | approximately 230 mPa·s | excellent pigment dispersibility |  |  |  |  |  |  |  |  | N-cyclohexylbutyramide-4-isostearic acid ester [CHBA-IS]
6 |  |  | G | I | G | G | G | G | I | Solid | CCCCCCCCCCCCCC(=O)OCCCC(=O)NCCCCCCCCCCCC [LBA-M, N-laurylbutyramide-4-myristic acid ester]
7 |  |  | S | I | G | G | G | G | I | Solid | CCCCCCCCCCCC(=O)OCCCC(=O)NC1CCCCC1 [CHBA-L, N-cyclohexylbutyramide-4-lauric acid ester]

Source: US20190314256A1, “COSMETIC BASE INCLUDING AMIDE ALCOHOL ESTER, AND COSMETIC” (Kokyu Alcohol Kogyo Co., Ltd., priority 2016, published 2019)
